Data from patent US8039455B2, “Macrocyclic compounds useful as BACE inhibitors” (Novartis AG, priority 2005, dated 2011).

Biological target: human BACE (Homo sapiens, UniProt P56817)
Experiment: Test 1: Inhibition of Human BACE
Type: biochemical
Text: Test 1: Inhibition of Human BACE

Sequence of human BACE (P56817 46-457 limits assumed): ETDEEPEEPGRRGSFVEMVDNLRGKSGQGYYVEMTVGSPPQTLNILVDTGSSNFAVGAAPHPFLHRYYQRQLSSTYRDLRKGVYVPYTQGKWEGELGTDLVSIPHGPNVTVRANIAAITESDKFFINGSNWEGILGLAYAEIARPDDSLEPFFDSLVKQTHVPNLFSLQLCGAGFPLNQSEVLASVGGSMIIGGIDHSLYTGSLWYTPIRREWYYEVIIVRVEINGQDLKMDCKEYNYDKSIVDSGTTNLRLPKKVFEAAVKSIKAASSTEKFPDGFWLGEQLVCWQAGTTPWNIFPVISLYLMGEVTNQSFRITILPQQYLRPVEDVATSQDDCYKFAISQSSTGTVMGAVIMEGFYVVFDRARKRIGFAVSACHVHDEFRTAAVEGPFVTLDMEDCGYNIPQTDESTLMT

SMILES: CC(=O)c1cc2cc(c1)C(=O)N[C@H]([C@H](O)CNC1(c3cccc(C(C)C)c3)CC1)Cc1cccc(c1)CCCCO2 [Example 5, (S)-18-Acetyl-4-{(R)-1-hydroxy-2-[1-(3-isopropyl-phenyl)-cyclopropylamino]-ethyl}-15-oxa-3-aza-tricyclo[14.3.1.1*6,10*]henicosa-1(20),6,8,10(21),16,18-hexaen-2-one]
- IC50: 250 nM
